Tests used:
[1] = test system: dihydrofolate reductase (DHFR); settings: bacterial vs mammalian DHFR; competes with substrate dihydrofolate; cited from earlier work
[2] = molecular target: T1, E. coli PPAT (Escherichia coli, UniProt P0A6I6); test: Assay for inhibitors of E. coli PPAT (pyrophosphate-dependent cleavage of dephosphocoenzyme A, coupled spectrophotometric assay at 340 nm); type: biochemical; settings: test compound at 0.05 mM, 25° C., compared with control without inhibitor
T1 construct: made in house; host or cells: E. coli (plasmid pUC/PPAT, pUC19 backbone)
Protocol: The activity of the PPAT enzyme was assayed by monitoring the pyrophosphate dependent cleavage of dephosphocoenzyme A which produced ATP and phosphopantetheine. The reaction contains in a final volume of 1 ml: 50 mM Tris-HCl containing 2 mM tetrasodium pyrophosphate, pH 8.0; 1 mM dithiothreitol; 1 mM NADP; 2 mM MgCl2; 5 mM glucose; 9 μg yeast hexokinase; and 7 μg yeast glucose 6-phosphate dehydrogenase. Reactions were monitored spectrophotometrically at 25° C. by following the increase in absorbance at 340 nm.
Inhibition studies were carried out using the reaction conditions described above. Test compounds were added to a final concentration of 0.05 mM, and the percentage inhibition determined by comparison with a control in which no test inhibitor is present.

T1 sequence (P0A6I6 whole entry): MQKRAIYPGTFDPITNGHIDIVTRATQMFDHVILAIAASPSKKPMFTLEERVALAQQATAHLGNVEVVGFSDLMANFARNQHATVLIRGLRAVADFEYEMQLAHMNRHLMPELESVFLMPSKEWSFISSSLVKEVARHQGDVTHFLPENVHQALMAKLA

Structure (SMILES)	bound more tightly by bacterial than mammalian forms of DHFR [1]	inhibition at 50 µM [2] [%]
COc1cc(Cc2cnc(N)nc2N)cc(OC)c1OC [trimethoprim]	50,000 fold	–
O=C1CC(=O)c2ccc3c4c(ccc1c24)C(=O)CC3=O [1,2,3,6,7,8-hexahydropyrene-1,3,6,8-tetraone]	–	~60
